From PMC9081605, “A High-Throughput Toxicity Screen of 42 Per- and Polyfluoroalkyl Substances (PFAS) and Functional Assessment of Migration and Gene Expression in Human Placental Trophoblast Cells” (Frontiers in Toxicology, 2022)
“Also recorded” adds a separate entry of the source.

What was measured:
Type in all cases: cell-based, human
JEG-3 cells [1] = assay: Proliferation, change in confluence 0-24 h (IncuCyte Zoom, HTTS); settings: for minimal effective concentration / EC50: Homo sapiens; for minimal effective concentration: read-out: Prolif ↓, lowest concentration at which the mean response value exceeded the mean control value ± 2*SD (rough binning); for cellular proliferation relative to vehicle control (rough binning): after 24 h, in at least one concentration
Method in brief: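 Confluence measured by automated image masking at 0 h and 24 h after dosing; proliferation = 24 h minus baseline confluence. JEG-3 seeded at 2,500 cells/well, ~30–50% baseline confluence, exposed 24 h to PFAS up to 500 µM in medium with 2.5% methanol vehicle; 37°C, 5% CO2.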

JEG-3 cells [2] = assay: Phase contrast live cell images, cell death (positive control); settings: 24 h
Experimental: A total of 42 perfluoroalkyl substances (PFAS) were evaluated (Supplementary Table S1 contains source and purity). PFAS stock solutions were maintained in 100% methanol as previous work has shown certain PFAS degrade when stored in dimethyl sulfoxide (DMSO; [Gaballah et al., 2020]). […] The vehicle control group consisted of 97.5% media + 2.5% methanol to match the concentration of methanol in the media at the highest PFAS concentration tested (500 µM). Menadione (50–500 µM) was used as a positive control for cytotoxicity assessment. PFAS were de-identified and assigned random numbers to eliminate bias. Chemical exposure plate maps were designed so that all experimental conditions were tested in at least technical duplicates per plate. The outer edges of each plate received media alone and were excluded from all analyses to avoid edge effects. Each plate map included 14 technical replicates of the vehicle control group and 14 technical replicates of media only. Biological replicates were defined as separate 384 well plates tested on separate days using different cell passages. The experimental workflow is depicted in Supplementary Figure S1.
JEG-3 cells were counted using a Z2 Coulter Particle Counter (Beckman Coulter, CA, United States) and seeded at a density of 2,500 cells per well in black-walled, clear bottom 384 well plates (Corning, #3764) and allowed to adhere overnight. Approximately 24 h later, 384 well plates were imaged using an IncuCyte Zoom live cell imager (Essen BioScience Inc., MI, United States) to obtain baseline cellular confluence measurements prior to chemical dosing (0 h). Media was removed from wells and replaced with fresh media containing chemical treatments (exposure media) using a Viaflo liquid handling device (Integra Biosciences, NH, United States). Within 30 min of exposure media application, plates were again imaged for cellular confluence using the IncuCyte Zoom. Plates were incubated with exposure media for 24 h and then imaged again using the IncuCyte Zoom (24 h).

JEG-3 cells [3] = assay: Mitochondrial membrane potential, JC-10 assay (HTTS); settings: for MMP relative to vehicle control (rough binning): after 24 h, in at least one concentration
Method in brief: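 JEG-3 cells seeded at 2,500 per well were exposed to PFAS for 24 h at 37 °C, with 2.5% methanol vehicle. After a PBS wash, 20 μM JC-10 was added for 1 h at 37 °C. Membrane potential was taken as the green (490/525 nm) to red (540/590 nm) fluorescence ratio.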

JEG-3 cells [4] = assay: CellTiter-Glo luminescent cell viability assay (HTTS); settings: for EC50: Homo sapiens, JEG-3, 24 h, read-out: Viability EC50 ± SD, JEG-3 cells, 24 h exposure, four-parameter fit, estimates meeting inclusion criteria; for cell viability relative to vehicle control (rough binning): after 24 h, in at least one concentration
Method in brief: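 JEG-3 cells (2,500/well) adhered overnight, then exposed 24 h to PFAS (methanol stocks; vehicle 2.5% methanol, top concentration 500 µM). Viability read by CellTiter-Glo ATP luminescence in the same wells as mitochondrial membrane potential; wells with 0 h confluence <20% or >80% excluded.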

JEG-3 cells [5] = assay: Scratch wound migration assay; settings: after 24 h of exposure, 25-200 µM
Experimental: JEG-3 cells were cultured as described in Cell Culture section, and six PFAS were evaluated across an 8-point linear concentration curve ranging from 25 to 200 µM (25 µM steps): PFOA (335-67-1), GenX (62037-80-3), PFOS (1763-23-1), perfluorooctanesulfonamide (PFOSA, 754-91-6), perfluorooctanamide (PFOAA, 423-54-1), and perfluorononanoic acid (PFNA, 375-95-1). The vehicle control group consisted of 98% media + 2% methanol to match the concentration of methanol in the media at the highest PFAS concentration tested (200 µM). Cadmium chloride (25 µM) was used as a positive control for cytotoxicity ([Brooks and Fry, 2017]). Chemical exposure plate maps were designed so that all experimental conditions were tested in at least technical duplicates per plate. The outer edges of each plate received media alone and were excluded from all analyses to avoid edge effects. JEG-3 cells were counted and seeded at a density of 80,000 cells per well in black-walled, clear bottom 96-well plates (Corning #CLS3603, Millipore Sigma) and allowed to adhere and grow for 36 h. After approximately 36 h, 96-well plates were imaged on the IncuCyte Zoom to obtain cellular confluence measurements prior to chemical dosing (0 h). Media was then removed from wells and replaced with fresh serum-free media containing chemical treatments (serum-free exposure media) using the Viaflo liquid handling device. After 1 h of treatment with serum-free exposure media, plates were again imaged for cellular confluence using the IncuCyte Zoom. Serum-free exposure media was then removed from wells and wells were scratched by dragging a 200 µl pipette tip from top to bottom of each well, changing tips every well. Fresh media containing serum and chemical treatments (exposure media) was added to plates using a liquid handling device and allowed to grow for 72 h, with imaging via the IncuCyte Zoom every 6 h.
Plate well bottom images were evaluated using automated cell masking as described in Proliferation section. Cell migration was calculated as the change in cellular confluence from the baseline measurement obtained immediately post-scratch to each subsequent time point (24, 48, and 72 h, post-scratch).
Raw migration assay data exported from IncuCyte software were analyzed using GraphPad Prism 8.0 (GraphPad Software, San Diego, CA)). Prior to analysis, a minimum starting confluence value of 70% was set to ensure comparisons between samples were not skewed. Images with a starting confluence of less than 70% were excluded from analysis. Statistical analysis was performed using multiple unpaired t-tests to compare treated groups to the vehicle control followed by post hoc correction for multiple tests using the Bonferroni-Dunn method. Concentration-response analysis to determine migration assay EC50s was attempted but was not able to be modeled due to the non-linear nature of the concentration-response relationship for this endpoint.

[6] = JEG-3, 24 h, read-out: Proliferation EC50 ± SD, JEG-3 cells, 24 h exposure, four-parameter fit, estimates meeting inclusion criteria
[7] = Homo sapiens, JEG-3, 24 h, read-out: MMP EC50 ± SD, JEG-3 cells, 24 h exposure, four-parameter fit, estimates meeting inclusion criteria

Row | Compound | minimal effective concentration (JEG-3 cells [1]; JEG-3, 24 h) | EC50 (JEG-3 cells [1]; [6]) | cellular proliferation relative to vehicle control (rough binning) (JEG-3 cells [1]) | cytotoxicity / cell death (JEG-3 cells [2]; 100 µM) | cell death (JEG-3 cells [2]; 150 µM) | concentration that promoted cell death (JEG-3 cells [2]) | minimal effective concentration (JEG-3 cells [3]; Homo sapiens, JEG-3, 24 h, read-out: MMP ↓, lowest concentration at which the mean response value exceeded the mean control value ± 2*SD (rough binning)) | MMP relative to vehicle control (rough binning) (JEG-3 cells [3]) | EC50 (JEG-3 cells [4]) | cell viability relative to vehicle control (rough binning) (JEG-3 cells [4]) | Prolif ↓, lowest concentration at which the mean response value exceeded the mean control value ± 2*SD (rough binning) (JEG-3 cells [1]; JEG-3 cells, 24 h, decrease) | MMP ↓, lowest concentration at which the mean response value exceeded the mean control value ± 2*SD (rough binning) (JEG-3 cells [3]; JEG-3 cells, 24 h, decrease) | Viability ↓, lowest concentration at which the mean response value exceeded the mean control value ± 2*SD (rough binning) (JEG-3 cells [4]; JEG-3 cells, 24 h, decrease) | EC50 (JEG-3 cells [1]; JEG-3, 24 h, read-out: proliferation EC50 ± SE, JEG-3 cells, 24 h) | EC50 (JEG-3 cells [1]; JEG-3, read-out: Proliferation EC50 ± SD (raw values), JEG-3 cells, raw model output including fits that did not meet inclusion criteria) | cellular migration relative to vehicle control (JEG-3 cells [5]) | EC50 (JEG-3 cells [3]; [7]) | EC50 (JEG-3 cells [3]; Homo sapiens, JEG-3, 24 h, read-out: MMP EC50 ± SE, JEG-3 cells, 24 h) | EC50 (JEG-3 cells [3]; read-out: MMP EC50 ± SD, JEG-3 cells, 24 h exposure, four-parameter fit, estimates meeting inclusion criteria) | Viability ↑, lowest concentration at which the mean response value exceeded the mean control value ± 2*SD (rough binning) (JEG-3 cells [4]; JEG-3 cells, 24 h, increase)
1 | CC1=CC(=O)c2ccccc2C1=O [Menadione, reference compound] | 150 µM | 157 ± 21.4 µM | reduced proliferation | minimal cell death; also recorded: not cytotoxic | Complete cell death | ≥ 150 µM | 300 µM | reduced MMP | 206 ± 47.1 µM | reduced cell viability | – | – | – | – | – | – | – | – | – | –
2 | O=P(O)(OCCC(F)(F)C(F)(F)C(F)(F)C(F)(F)C(F)(F)C(F)(F)C(F)(F)C(F)(F)F)OCCC(F)(F)C(F)(F)C(F)(F)C(F)(F)C(F)(F)C(F)(F)C(F)(F)C(F)(F)F [8:2 Fluorotelomer phosphate diester] | – | – | reduced cellular proliferation | – | – | – | – | reduced MMP | – | reduced cell viability | 100 µM | 350 µM | 50 µM | – | – | – | – | – | – | –
3 | NC(=O)C(F)(F)C(F)(F)C(F)(F)C(F)(F)C(F)(F)C(F)(F)C(F)(F)F [Perfluorooctanamide] | – | 114 µM | – | – | – | – | – | – | – | – | – | – | – | 114 ± 35.6 µM | 114 ± 35.6 µM | significantly reduced | 295 ± 66.1 µM | – | – | –
4 | O=S(=O)(O)C(F)(F)C(F)(F)C(F)(F)C(F)(F)C(F)(F)C(F)(F)F [Perfluorohexanesulfonic acid] | 350 µM | 252 ± 21.7 µM | reduced cellular proliferation | – | – | – | – | – | 289 ± 29.6 µM | increased cell viability | – | – | – | – | – | – | 86.2 µM | 86.2 ± 72.3 µM | 86.6 ± 71.5 µM | 50 µM
